Measured values: doi:10.1101/2024.12.25.630315 (bioRxiv, 2024)

Tested on: HT1376 tumors
Assay: EV therapy response and PET target engagement, HT1376 xenografts
Type: in vivo, mouse
Method: Mice with tumor volume of ~100-150 mm^3 were injected with ~[…] (7.4 MBq) of [^68Ga]AJ647 in […] of 5% ethanol in saline intravenously and anesthetized under 2.5% isoflurane. PET-CT images were acquired at 60 minutes after radiotracer injection at 5 min/bed in an ARGUS small-animal PET/CT scanner (Sedecal, Madrid, Spain) as described (n=3 unless otherwise noted). PET-MR images were acquired on a simultaneous 7T Bruker PET-MR scanner. Dynamic imaging was conducted to evaluate pharmacokinetics of [^68Ga]AJ647. [^68Ga]AJ647 was injected (with help of catheter) after mice was anesthetized under 2.5% isoflurane on the equipment bed. All PET data were reconstructed using the two-dimensional ordered subsets-expectation maximization algorithm (2D-OSEM) and corrected for radioactive decay and dead time. The SUV values were calculated by finding percent of injected activity (%IA) based on a calibration factor obtained from a known radioactive quantity, then normalizing by mice weight. […] For change in accessible Nectin-4 levels following EV treatment, ΔSUV was calculated by subtracting baseline (pre-treatment) uptake from post-therapy uptake of [^68Ga]AJ647. Target engagement was quantified by normalizing this change by initial SUV in same subject controls. […] Mice body weight and tumor measurements were recorded until saline group tumors reached 1500 mm^3 average size. […] Briefly, the percentage change in volume relative to baseline: % tumor volume change (ΔVolt) = 100% × ((Vt -[…]). BestResponse was the lowest ΔVolt for t ≥ 10 days. For each time t, the average ΔVolt from t = 0 to t was calculated, with the BestAvgResponse defined as the lowest average ΔVolt for t ≥ 10 days. Modified response criteria (mRECIST), adapted from RECIST21, were as follows: mCR (BestResponse < -95%, BestAvgResponse < -40%), mPR (BestResponse < -50%, BestAvgResponse < -20%), mSD (BestResponse < 35%, BestAvgResponse < 30%), and mPD (all others). We defined mPD as non-responders (0 response) and stable disease or better as responders (1 response). […]

In the case of enfortumab vedotin [EV], the “share of mice with less than 50% target engagement” value (EV 6 and 15 mg/kg groups, day 6 PET) is reported as 50%, the “responders (mRECIST, stable disease or better)” value (EV-treated mice with higher target engagement, irrespective of dose) is reported as 7/8 and the “responders (mRECIST, stable disease or better)” value (EV-treated mice with less than 30% target engagement) is reported as 0/12.
